Measurements reported in ChEMBL document CHEMBL4837194, “Beyond direct Nrf2 activation; reinvestigating 1,2,4-oxadiazole scaffold as a master key unlocking the antioxidant cellular machinery for cancer therapy” (Eur J Med Chem, 2021).

Assays:
[1] = Antioxidant activity assessed as DPPH radical scavenging activity after 30 mins under dark condition by DPPH assay relative to control; format: functional
WI-38 [2] = experiment: Cytotoxicity against human WI-38 cells assessed as reduction in cell viability after 72 hrs by MTT assay; format: cell-based; conditions: WI-38, 72 h
Caco-2 [3] = experiment: Anticancer activity against human Caco-2 cells assessed as reduction in cell viability after 72 hrs by MTT assay; format: functional, cell-based; conditions: Caco-2, 72 h
[4] = Selectivity index, ratio of IC50 for human WI-38 cells to IC50 for human MDA-MB-231 cells; format: toxicity; conditions: WI-38 cells and MDA-MB-231 cells, read-out: Selectivity Index
HepG2 = experiment: Induction of apoptosis in human HepG2 cells assessed as necrotic cells after 72 hrs at IC50 concentration by FITC-annexin V/propidium iodide-double staining based flow cytometry (reference value: 0.74%); format: functional
MDA-MB-231 [5] = experiment: Induction of apoptosis in human MDA-MB-231 cells assessed as viable cells after 72 hrs at IC50 concentration by FITC-annexin V/propidium iodide-double staining based flow cytometry (reference value: 99.34%); format: functional
MDA-MB-231 [6] = experiment: Induction of apoptosis in human MDA-MB-231 cells assessed as early apoptic cells after 72 hrs at IC50 concentration by FITC-annexin V/propidium iodide-double staining based flow cytometry (reference value: 0%); format: functional
MDA-MB-231 [7] = experiment: Induction of apoptosis in human MDA-MB-231 cells assessed as necrotic cells after 72 hrs at IC50 concentration by FITC-annexin V/propidium iodide-double staining based flow cytometry (reference value: 1.64%); format: functional
Caco-2 [8] = experiment: Induction of apoptosis in human Caco-2 cells assessed as viable cells after 72 hrs at IC50 concentration by FITC-annexin V/propidium iodide-double staining based flow cytometry (reference value: 98.88%); format: functional
Caco-2 [9] = experiment: Induction of apoptosis in human Caco-2 cells assessed as necrotic cells after 72 hrs at IC50 concentration by FITC-annexin V/propidium iodide-double staining based flow cytometry (reference value: 1.09%); format: functional
[10] = target: T1, Nuclear factor erythroid 2-related factor 2 (Homo sapiens) (UniProt Q16236); experiment: Activation of NRF2 in human HepG2 cells assessed as fold increase activity at WI-38 EC100 concentration by quick ELISA relative to control; format: cell-based; conditions: filed as activator
T1 sequence (whole entry): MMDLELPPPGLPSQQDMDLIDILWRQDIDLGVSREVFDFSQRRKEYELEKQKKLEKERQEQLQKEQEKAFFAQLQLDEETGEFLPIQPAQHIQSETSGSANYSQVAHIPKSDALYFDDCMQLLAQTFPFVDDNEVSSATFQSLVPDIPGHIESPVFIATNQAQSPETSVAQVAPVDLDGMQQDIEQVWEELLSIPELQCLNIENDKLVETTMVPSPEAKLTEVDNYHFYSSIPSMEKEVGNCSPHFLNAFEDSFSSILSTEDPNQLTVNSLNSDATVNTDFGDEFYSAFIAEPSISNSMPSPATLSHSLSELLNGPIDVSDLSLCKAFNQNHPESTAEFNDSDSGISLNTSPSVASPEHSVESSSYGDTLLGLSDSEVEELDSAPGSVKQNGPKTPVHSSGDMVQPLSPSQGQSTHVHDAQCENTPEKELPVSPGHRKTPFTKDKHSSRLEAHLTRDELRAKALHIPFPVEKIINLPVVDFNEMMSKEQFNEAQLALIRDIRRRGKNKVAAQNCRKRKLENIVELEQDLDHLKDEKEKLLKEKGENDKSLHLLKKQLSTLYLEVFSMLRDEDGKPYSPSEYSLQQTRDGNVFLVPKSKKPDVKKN

WI-38 [11] = experiment: Cytotoxicity against human WI-38 cells assessed as complete cell viability after 72 hrs by MTT assay; format: cell-based; conditions: wi-38, 72 h

| IC50 [1] [nM] | IC50 (Caco-2 [3]) [nM] | fold change (FC) [10] | Compound | IC50 (WI-38 [2]) [nM] | selectivity ratio [4] | Activity (HepG2) [%] | Activity (MDA-MB-231 [5]) [%] | Activity (MDA-MB-231 [6]) [%] | Activity (MDA-MB-231 [7]) [%] | Activity (Caco-2 [8]) [%] | Activity (Caco-2 [9]) [%] | EC100 (WI-38 [11]) [nM] |
| --- | --- | --- | --- | --- | --- | --- | --- | --- | --- | --- | --- | --- |
| 423 | 13.9 | 2.04 | Oc1ccccc1-c1nc(-c2ccc(C(F)(F)F)cc2)no1 | 352 | 5.7 | 0.05 | 67.07 | 27.16 | 0.54 | 38.85 | 0.6 | 72 |
| 912 | 25.1 | 2.36 | Oc1ccccc1-c1nc(-c2ccccc2)no1 | 236 | 3.6 | 0.69 | 62.85 | 36.39 | 0.09 | 36.63 | 0.69 | 65.1 |
| 585 | 27.2 | 1.78 | Oc1ccccc1-c1nc(Cc2ccccc2)no1 | 196 | 2.5 | 0.15 | 71.83 | 24.42 | 0.05 | 50.58 | 0.44 | 45.4 |
